What was measured:
corn [1] = test: Test Example 2: soil surface treatment, upland pot test; format: in vivo, Zea mays L.; conditions: active ingredient 1000 g/ha, observed 20th to 28th day
Summary of the method: (§1)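 Visual growth-control ratings (0 = untreated, 100 = complete kill) were taken 20–28 days after soil surface application. The spray was made one day post-sowing in upland soil pots, using formulated compound diluted with water at 1,500 L/ha at a set active ingredient rate.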

tall morningglory = test: Test Example 1: foliage treatment, upland pot test; format: in vivo, Ipomoea purpurea L.; conditions: active ingredient 1000 g/ha, observed 18th to 23rd day, 0 = non-treated, 100 = complete kill
Text: Upland field soil was put into a 1/170,000 ha pot, and seed of various plants were sown. Then, when the plants reached predetermined leaf stages ((1) barnyardgrass: 1.3 to 2.8 leaf stages, (2) crabgrass: 1.0 to 2.8 leaf stages, (3) green foxtail: 1.3 to 2.6 leaf stages, (4) redroot pigweed: 0.1 to 1.2 leaf stages, (5) prickly sida: 0.1 to 1.2 leaf stages, (6) velvetleaf: 0.1 to 1.2 leaf stages, (7) tall morningglory: 0.1 to 1.5 leaf stages, (8) rice: 1.2 to 2.6 leaf stages, (9) wheat: 1.3 to 2.4 leaf stages, (10) corn, 2.1 to 3.2 leaf stages, (11) soybean: 0.1 to 0.4 leaf stage), a wettable powder or emulsifiable concentrate having the compound of the present invention formulated in accordance with a usual formulation method, was weighed so that the active ingredient would be a predetermined amount, and diluted with water in an amount of 500 L/ha. To the diluted solution, 0.1% (v/v) of agricultural spreader was added. The herbicide thus adjusted was applied by a small size sprayer for foliage treatment. On the 18th to 23rd days after the application of the herbicide, the growth of the respective plants was visually observed, and the herbicidal effects were evaluated by the growth controlling degrees (%) ranging from 0 (equivalent to the non-treated plot) to 100 (complete kill), whereby the results shown in Table 3, were obtained.

barnyardgrass [2] = test: Test Example 1: foliage treatment, upland pot test; format: in vivo, Echinochloa crus-galli L.; conditions: active ingredient 1000 g/ha, observed 18th to 23rd day, 0 = non-treated, 100 = complete kill
Summary of the method: (§2)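 Pots of upland field soil were sown and sprayed post-emergence at soybean 0.1–0.4, wheat 1.3–2.4, rice 1.2–2.6 and barnyardgrass 1.3–2.8 leaf stages. Formulations were diluted in water at 500 L/ha with 0.1% (v/v) spreader. Growth control (0 = untreated, 100 = complete kill) was judged by eye 18–23 days later.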

velvetleaf [3] = test: Test Example 1: foliage treatment, upland pot test; format: in vivo, Abutilon theophrasti MEDIC.; conditions: active ingredient 1000 g/ha, observed 18th to 23rd day, 0 = non-treated, 100 = complete kill
crabgrass [4] = test: Test Example 1: foliage treatment, upland pot test; format: in vivo, Digitaria sanguinalis L.; conditions: active ingredient 1000 g/ha, observed 18th to 23rd day, 0 = non-treated, 100 = complete kill
crabgrass [5] = test: Test Example 2: soil surface treatment, upland pot test; format: in vivo, Digitaria sanguinalis L.; conditions: active ingredient 1000 g/ha, observed 20th to 28th day
Summary of the method: as §1

prickly sida [6] = test: as above; format: in vivo, Sida spinosa L.; conditions: active ingredient 1000 g/ha, observed 20th to 28th day
Summary of the method: as §1

wheat [7] = test: as above; format: in vivo, Triticum spp.; conditions: active ingredient 1000 g/ha, observed 20th to 28th day
Summary of the method: as §1

rice [8] = test: as above; format: in vivo, Oryza sativa L.; conditions: active ingredient 1000 g/ha, observed 20th to 28th day
Summary of the method: as §1

velvetleaf [9] = test: as above; format: in vivo, Abutilon theophrasti MEDIC.; conditions: active ingredient 1000 g/ha, observed 20th to 28th day
Summary of the method: as §1

rice [10] = test: Test Example 1: foliage treatment, upland pot test; format: in vivo, Oryza sativa L.; conditions: crop, active ingredient 1000 g/ha, observed 18th to 23rd day, 0 = non-treated, 100 = complete kill
Summary of the method: as §2

wheat [11] = test: Test Example 1: foliage treatment, upland pot test; format: in vivo, Triticum spp.; conditions: crop, active ingredient 1000 g/ha, observed 18th to 23rd day, 0 = non-treated, 100 = complete kill
Summary of the method: as §2

redroot pigweed [12] = test: Test Example 1: foliage treatment, upland pot test; format: in vivo, Amaranthus retroflexus L.; conditions: active ingredient 1000 g/ha, observed 18th to 23rd day, 0 = non-treated, 100 = complete kill
barnyardgrass [13] = test: Test Example 3: paddy pot test, application under submerged conditions; format: in vivo, Echinochloa crus-galli L.; conditions: submerged application at 0.5 leaf stage, visually observed 14 days after application, 0 = non-treated, 100 = complete kill
Summary of the method: (§3)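 After sowing seeds and planting wapato tubers in flooded paddy soil, an aqueous dilution of the formulated compound was added to the 3–4 cm flood water at early leaf stage. Percent growth control relative to the untreated plot was assessed visually on day 14.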

corn [14] = test: Test Example 1: foliage treatment, upland pot test; format: in vivo, Zea mays L.; conditions: crop, active ingredient 1000 g/ha, observed 18th to 23rd day, 0 = non-treated, 100 = complete kill
Summary of the method: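 In this upland pot foliage test, corn plants at 2.1 to 3.2 leaf stages were sprayed by a small size sprayer. The spray was a conventionally formulated wettable powder or emulsifiable concentrate weighed to a set active ingredient amount, diluted in water at 500 L/ha, plus 0.1% (v/v) agricultural spreader. Visual assessment on days 18 to 23 gave growth controlling degree (%), where 0 equals untreated and 100 means complete kill.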

barnyardgrass [15] = test: Test Example 2: soil surface treatment, upland pot test; format: in vivo, Echinochloa crus-galli L.; conditions: active ingredient 1000 g/ha, observed 20th to 28th day, 0 = non-treated, 100 = complete kill
Summary of the method: as §1

green foxtail [16] = test: as above; format: in vivo, Setaria viridis L.; conditions: active ingredient 1000 g/ha, observed 20th to 28th day
Summary of the method: as §1

redroot pigweed [17] = test: as above; format: in vivo, Amaranthus retroflexus L.; conditions: active ingredient 1000 g/ha, observed 20th to 28th day
Summary of the method: as §1

japanese ribbon wapato = test: Test Example 3: paddy pot test, application under submerged conditions; format: in vivo, Sagittaria pygniaea; conditions: submerged application at primary leaf stage, visually observed 14 days after application, 0 = non-treated, 100 = complete kill
Summary of the method: as §3

rice (var. Nihonbare) = test: Test Example 3: paddy pot test, transplanted rice; format: in vivo, Oryza sativa L.; conditions: applied 4th day after transplantation, visually observed 21st day after application, 0 = non-treated, 100 = complete kill
Summary of the method: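 Rice (2-leaf stage) was transplanted 3 cm deep into puddled, leveled paddy soil under 3–4 cm flooding. On day 4 after transplanting, diluted wettable powder or emulsifiable concentrate was pipetted onto the water at a predetermined active-ingredient dose. Growth control (0 = untreated, 100 = complete kill) was scored visually 21 days later.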

soybean [18] = test: Test Example 2: soil surface treatment, upland pot test; format: in vivo, Glycine max Merr.; conditions: active ingredient 1000 g/ha, observed 20th to 28th day
Summary of the method: as §1

japanese bulrush = test: Test Example 3: paddy pot test, application under submerged conditions; format: in vivo, Scirpus juncoides; conditions: submerged application at 0.5 leaf stage, visually observed 14 days after application, 0 = non-treated, 100 = complete kill
Summary of the method: as §3

prickly sida [19] = test: Test Example 1: foliage treatment, upland pot test; format: in vivo, Sida spinosa L.; conditions: active ingredient 1000 g/ha, observed 18th to 23rd day, 0 = non-treated, 100 = complete kill
green foxtail [20] = test: Test Example 1: foliage treatment, upland pot test; format: in vivo, Setaria viridis L.; conditions: active ingredient 1000 g/ha, observed 18th to 23rd day, 0 = non-treated, 100 = complete kill
soybean [21] = test: Test Example 1: foliage treatment, upland pot test; format: in vivo, Glycine max Merr.; conditions: crop, active ingredient 1000 g/ha, observed 18th to 23rd day, 0 = non-treated, 100 = complete kill
Summary of the method: as §2

Row | Structure (SMILES) | Growth controlling degree (%) Corn (corn [1]) [%] | Growth controlling degree (%) Tall morningglory (tall morningglory) [%] | Growth controlling degree (%) Barnyardgrass (barnyardgrass [2]) [%] | Growth controlling degree (%) Velvetleaf (velvetleaf [3]) [%] | Growth controlling degree (%) Crabgrass (crabgrass [4]) [%] | Growth controlling degree (%) Crabgrass (crabgrass [5]) [%] | Growth controlling degree (%) Prickly sida (prickly sida [6]) [%] | Growth controlling degree (%) wheat (wheat [7]) [%] | Growth controlling degree (%) Rice (rice [8]) [%] | Growth controlling degree (%) Velvetleaf (velvetleaf [9]) [%] | Growth controlling degree (%) Rice (rice [10]) [%] | Growth controlling degree (%) wheat (wheat [11]) [%] | Growth controlling degree (%) Redroot pigweed (redroot pigweed [12]) [%] | Growth controlling degree (%) Corn (corn [14]) [%] | Growth controlling degree (%) Barnyardgrass (barnyardgrass [15]) [%] | Growth controlling degree (%) Green foxtail (green foxtail [16]) [%] | Growth controlling degree (%) Redroot pigweed (redroot pigweed [17]) [%] | Growth controlling degree (%) Soyabean (soybean [18]) [%] | Growth controlling degree (%) Prickly sida (prickly sida [19]) [%] | Growth controlling degree (%) Green foxtail (green foxtail [20]) [%] | also measured
1 | CC(C)C(c1cnccc1C(F)(F)F)N(C)C(=O)Cc1ccccc1Br (stereo not drawn) [I-15] | 40 | 80 | 70 | 70 | 70 | 100 | 70 | 30 | 40 | 60 | 10 | 20 | 70 | 0 | 100 | 100 | 70 | 20 | 80 | 80 | Growth controlling degree (%) Barnyardgrass (barnyardgrass [13]; active ingredient 250 g/ha): 100%; Growth controlling degree (%) Japanese ribbon wapato (japanese ribbon wapato; active ingredient 250 g/ha): 100%; Growth controlling degree (%) Rice (rice (var. Nihonbare); active ingredient 250 g/ha): 10%; Growth controlling degree (%) Japanese bulrush (japanese bulrush; active ingredient 250 g/ha): 95%; Growth controlling degree (%) Soybean (soybean [21]): 40%
2 | CC(C)C(c1cnccc1C(F)(F)F)N(C)C(=O)Cc1cccc(Br)c1 (stereo not drawn) [I-16] | 30 | 80 | 70 | 80 | 80 | 100 | 80 | 30 | 30 | 60 | 10 | 40 | 80 | 0 | 98 | 100 | 95 | 0 | 80 | 70 | Growth controlling degree (%) Barnyardgrass (barnyardgrass [13]; active ingredient 250 g/ha): 100%; Growth controlling degree (%) Japanese ribbon wapato (japanese ribbon wapato; active ingredient 250 g/ha): 30%; Growth controlling degree (%) Rice (rice (var. Nihonbare); active ingredient 250 g/ha): 10%; Growth controlling degree (%) Japanese bulrush (japanese bulrush; active ingredient 250 g/ha): 90%; Growth controlling degree (%) Soybean (soybean [21]): 70%
3 | CCC(=O)N(C)C(c1cnccc1C(F)(F)F)c1cccc2ccccc12 (stereo not drawn) [I-43] | 30 | 90 | 70 | 95 | 90 | 100 | 70 | 40 | 10 | 0 | 10 | 10 | 70 | 10 | 90 | 98 | 60 | 10 | 80 | 70 | Growth controlling degree (%) Barnyardgrass (barnyardgrass [13]; active ingredient 500 g/ha): 100%; Growth controlling degree (%) Japanese ribbon wapato (japanese ribbon wapato; active ingredient 500 g/ha): 90%; Growth controlling degree (%) Rice (rice (var. Nihonbare); active ingredient 500 g/ha): 35%; Growth controlling degree (%) Japanese bulrush (japanese bulrush; active ingredient 500 g/ha): 100%; Growth controlling degree (%) Soybean (soybean [21]): 10%

— US20050239656A1, “Pyridine compounds or salts thereof and herbicides containing the same” (priority 2002, published 2005)
